The subject of data set [1] is BaF3-EGFR^L858R/T790M/C797S cells. In words: Cell proliferation assay (CCK8/SRB). As to conditions: Ba/F3 EGFR-L858R, 72 h, read-out: IC50, antiproliferation activity.
The subject of data set [2] is BaF3-EGFR^19del/T790M cells. In words: Cell proliferation assay (CCK8/SRB). As to conditions: 72 h, read-out: IC50, antiproliferation activity.
The next data set relates to NCI-H1975 cells. In words: Cell proliferation assay (CCK8/SRB). As to conditions: Homo sapiens, NCI-H1975, 72 h, read-out: IC50, antiproliferation activity.
For data set [3], the system named is BaF3-EGFR^L858R/T790M cells. The experiment in a line: Cell proliferation assay (CCK8/SRB). As to conditions: Ba/F3 EGFR-L858R, 72 h, read-out: IC50, antiproliferation activity.
For data set [4], the system named is BaF3-EGFR^19del/T790M/C797S mouse xenograft tumors. The class given is in vivo. As to conditions: for phosphorylation of EGFR and Erk in tumors (Western blot): tumor tissues collected 2 h after last treatment. As for the experimental part: Western blotting was performed as described previously. Cells were collected by trypsin and then lysed with SDS lysis buffer. Tumor tissues were homogenized in RIPA buffer on ice, followed by centrifugation at 12,000 x g for 30 min.
Mice were sacrificed and tumors were harvested for Western blot analysis. All animal study was approved by the Institutional Animal Care and Use Committee of the Shanghai Institute of Materia Medica and strictly performed according to the institutional ethical guidelines on animal care.
(In general: In western blotting, separated proteins are transferred to a membrane and probed.)

In the next data set the test system is BaF3 parental cells. The experiment in a line: Cell proliferation assay (CCK8/SRB). Conditions: Mus musculus, BaF3, 72 h, read-out: IC50, antiproliferation activity.
In data set [5] the test system is BaF3-EGFR^19del/T790M/C797S cells. The experiment in a line: Cell proliferation assay (CCK8/SRB). Conditions: 72 h, read-out: IC50, antiproliferation activity.
The test system of data set [6] is EGFR phosphorylation in triple mutant BaF3 cells and PC-9-OR cells. The experiment in a line: Western blot of EGFR phosphorylation in EGFR^C797S triple mutant cells. Conditions: treated 2 h. It is filed as cell-based.
For data set [7], the system named is PC-9-OR cells. In words: Cell proliferation assay (CCK8/SRB). As to conditions: PC9-OR, 72 h, read-out: IC50, antiproliferation activity.
The subject of data set [8] is cleaved caspase-3 and cleaved PARP in triple mutant BaF3 and PC-9-OR cells. The experiment in a line: Western blot of apoptosis-related proteins. The class given is cell-based. As for the experimental part: (§1) Western blotting was performed as described previously. Cells were collected by trypsin and then lysed with SDS lysis buffer. Tumor tissues were homogenized in RIPA buffer on ice, followed by centrifugation at 12,000 x g for 30 min. The concentration of protein was measured with BCA protein assay kit (cat. no. 23227, Thermo Fisher Scientific). After heating at 100 °C for 15 min, protein samples were separated on 8-12% SDS-PAGE gels, and then transferred to nitrocellulose membranes (Life Technologies). Membranes were blocked in 5% nonfat milk-TBST and immunoblotted with primary antibodies against phospho-EGFR (Tyr1068; dilution, 1:500; cat. no. 2234L, CST), EGFR (dilution, 1:1000; cat. no. 4267S, CST), PARP (dilution, 1:1000; cat. no. 9542S, CST), caspase-3 (dilution, 1:1000; cat. no. 9662S, CST), cleaved caspase-3 (dilution, 1:1000; cat. no. 9664S, CST), phospho-Erk (Thr202/Tyr204; dilution, 1:1000; cat. no. 4370S, CST), Erk (dilution, 1:1000; cat. no. 4695S, CST) and β-actin (dilution, 1:20000; cat. no. 60008-1-Ig, Proteintech) at 4 °C overnight and then incubated with secondary antibodies (cat. no. 111-035-003, Jackson).

Data set [9] deals with BaF3-EGFR^L858R/T790M/C797S cells. In words: Cell apoptosis analysis (Annexin V-FITC, flow cytometry). It is filed as cell-based. As to conditions: 48 h. As for the experimental part: (§2) Then cells were collected and washed with PBS and measured by Annexin V-FITC Apoptosis detection kit (cat. no. A211-02, Vazyme Biotechnology). Signals were measured using FACS Calibur flow cytometer, and FlowJo software was used to analyze the data.

A further data set deals with EGFR^L858R/T790M/C797S (Homo sapiens, UniProt P00533, C797S/L858R/T790M). The experiment in a line: In vitro kinase assay (ELISA). It is filed as biochemical. Conditions: mean ± SD of three independent experiments, read-out: IC50, kinase inhibitory activity against EGFR^L858R/T790M/C797S. Background: ELISA stands for enzyme-linked immunosorbent assay.
Sequence of EGFR^L858R/T790M/C797S (P00533 712-979 T790M/C797S/L858R limits assumed): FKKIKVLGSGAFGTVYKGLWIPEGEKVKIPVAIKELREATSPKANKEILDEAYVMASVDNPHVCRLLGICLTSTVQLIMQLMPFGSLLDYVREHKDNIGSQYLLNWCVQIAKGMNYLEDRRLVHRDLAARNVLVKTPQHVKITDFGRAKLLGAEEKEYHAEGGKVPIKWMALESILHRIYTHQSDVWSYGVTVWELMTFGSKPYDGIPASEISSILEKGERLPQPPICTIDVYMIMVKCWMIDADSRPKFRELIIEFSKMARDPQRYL
The next data set has as its system GSE-1 cells. In words: Cell proliferation assay (CCK8/SRB). Conditions: Homo sapiens, 72 h, read-out: IC50, antiproliferative activity.
Another data set has as its target EGFR^L858R/T790M (Homo sapiens, UniProt P00533, L858R/T790M). In words: In vitro kinase assay (ELISA). As to conditions: mean ± SD of three independent experiments, read-out: IC50, kinase inhibitory activity against EGFR^L858R/T790M. It is filed as biochemical.
In data set [10] the test system is EGFR phosphorylation in BaF3-EGFR^L858R/T790M, BaF3-EGFR^19del/T790M and NCI-H1975 cells. The experiment in a line: Western blot of EGFR phosphorylation in EGFR^T790M double mutant cells. As to conditions: treated 2 h. The class given is cell-based. As for the experimental part:
as §1

In data set [11] the target is EGFR^WT (Homo sapiens, UniProt P00533). The experiment in a line: In vitro kinase assay (ELISA).
Sequence of EGFR^WT (Homo sapiens, UniProt P00533) (P00533 712-979 limits assumed): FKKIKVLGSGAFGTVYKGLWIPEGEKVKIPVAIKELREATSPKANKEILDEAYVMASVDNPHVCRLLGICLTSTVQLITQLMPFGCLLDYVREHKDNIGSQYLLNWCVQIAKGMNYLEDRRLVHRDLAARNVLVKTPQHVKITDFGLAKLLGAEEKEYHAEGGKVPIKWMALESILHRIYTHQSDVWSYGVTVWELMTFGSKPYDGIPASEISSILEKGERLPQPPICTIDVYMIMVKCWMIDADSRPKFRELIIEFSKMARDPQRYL
The test system of data set [12] is EGFR^WT. The experiment in a line: In vitro kinase assay (ELISA). Conditions: EGFR^C797S triple mutants versus EGFR^WT, kinase IC50.
The subject of another data set is MRC-9 cells. The experiment in a line: Cell proliferation assay (CCK8/SRB). Conditions: Homo sapiens, MRC9, 72 h, read-out: IC50, antiproliferative activity.
A further data set has as its target EGFR^19del/T790M (Homo sapiens, UniProt P00533, DEL746-750/T790M). In words: In vitro kinase assay (ELISA). It is filed as biochemical. Conditions: mean ± SD of three independent experiments, read-out: IC50, kinase inhibitory activity against EGFR^19del/T790M.
Another data set concerns the target EGFR^19del/T790M/C797S (Homo sapiens, UniProt P00533, C797S/DEL746-750/T790M). In words: In vitro kinase assay (ELISA). It is filed as biochemical. Conditions: mean ± SD of three independent experiments, read-out: IC50, kinase inhibitory activity against EGFR^19del/T790M/C797S.
In data set [13] the test system is PC-9-OR cells. The experiment in a line: Cell apoptosis analysis (Annexin V-FITC, flow cytometry). The class given is cell-based. Conditions: 3 μM, 48 h. The method, then: as §2
For orientation: In flow cytometry, cells or beads pass a laser one at a time.

Data set [14] relates to BaF3-EGFR^19del/T790M/C797S cells. The description is as above. The class given is cell-based. Conditions: 3 μM, 48 h. The method, then:
as §2

[15] abbreviates: triple mutant BaF3 cells and PC-9-OR cells.

The structures appear in SMILES notation. Like-named read-outs stand apart in the source and are kept apart here.

Sequence of EGFR^19del/T790M/C797S (P00533 with tags, fused parts or gaps DEL746-750/T790M/C797S limits assumed): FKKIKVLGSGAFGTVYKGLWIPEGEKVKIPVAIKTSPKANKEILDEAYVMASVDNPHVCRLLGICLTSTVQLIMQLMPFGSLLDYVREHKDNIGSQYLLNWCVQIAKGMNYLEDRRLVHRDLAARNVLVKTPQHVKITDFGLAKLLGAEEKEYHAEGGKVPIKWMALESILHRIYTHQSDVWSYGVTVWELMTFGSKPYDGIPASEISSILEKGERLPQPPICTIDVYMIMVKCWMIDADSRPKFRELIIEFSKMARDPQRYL
Sequence of EGFR^L858R/T790M (P00533 712-979 T790M/L858R limits assumed): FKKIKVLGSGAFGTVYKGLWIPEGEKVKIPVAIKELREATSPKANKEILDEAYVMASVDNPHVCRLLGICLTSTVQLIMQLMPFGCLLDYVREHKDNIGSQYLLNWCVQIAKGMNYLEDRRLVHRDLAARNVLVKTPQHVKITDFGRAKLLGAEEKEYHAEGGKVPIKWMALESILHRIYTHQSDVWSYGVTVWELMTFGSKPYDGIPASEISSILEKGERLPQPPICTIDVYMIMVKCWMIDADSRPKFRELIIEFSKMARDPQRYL
Sequence of EGFR^19del/T790M (P00533 with tags, fused parts or gaps DEL746-750/T790M limits assumed): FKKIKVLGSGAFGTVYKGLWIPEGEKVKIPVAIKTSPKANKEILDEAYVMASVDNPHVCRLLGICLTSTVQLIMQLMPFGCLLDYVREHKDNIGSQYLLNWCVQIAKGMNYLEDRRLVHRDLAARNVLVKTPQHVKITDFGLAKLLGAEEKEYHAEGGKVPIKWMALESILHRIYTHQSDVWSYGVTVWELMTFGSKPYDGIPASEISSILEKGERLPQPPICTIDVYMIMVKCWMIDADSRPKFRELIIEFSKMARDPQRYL

For `C=CC(=O)Nc1cc(Nc2nccc(-c3cn(C)c4ccccc34)n2)c(OC)cc1N(C)CCN(C)C` [AZD9291, Osimertinib, reference compound], the IC50 in [1] is 5.5 ± 0.33 µM; in [2], […]; with NCI-H1975 cells, […]; in data set [3] it was […]; in the data set with BaF3 parental cells, 3.52 ± 0.92 µM; in data set [5] it was 5.93 ± 0.78 µM. The IC50 in the data set on PC-9-OR cells [7] was 6.3 µM. Besides, the “reduction of tumor growth compared to vehicle” value in data set [4] (25 mg/kg, oral, once a day, BALB/c nude mice) is “did not show significant reduction of tumor growth”. Also, the “phosphorylation of EGFR and Erk in tumors (Western blot)” value in data set [4] was “no obvious inhibitory activities of EGFR and Erk”. The “EGFR phosphorylation (Western blot)” value in data set [6] (1 μM, all three EGFR^C797S triple mutant cells) is listed as “failed to suppress”.
For the molecule `CCS(=O)(=O)n1cc(-c2nc(Nc3ccc(N4CCC(N5CCN(C)CC5)CC4)c(OC(C)C)c3)ncc2Cl)c2ccccc21` [HCD3514], the IC50 in [1] came out at 0.35 µM; in data set [2], 0.52 µM; in the data set on NCI-H1975 cells, 0.49 µM; in data set [3], 0.66 µM; on EGFR^L858R/T790M/C797S, 0.001 µM; in the data set on GSE-1 cells, 1.04 µM. Also, the IC50 is 1.31 µM in the data set with BaF3 parental cells; 0.0049 µM on EGFR^L858R/T790M; 0.25 µM in data set [5]; 0.156 ± 0.0069 µM against EGFR^WT [11]; 1.03 µM with MRC-9 cells; 0.0089 µM at EGFR^19del/T790M. Also, the results for the IC50 in the data set with PC-9-OR cells [7] and at EGFR^19del/T790M/C797S were 0.48 µM and 0.002 µM, respectively. Moreover, the “expression of cleaved caspase-3 and cleaved PARP (Western blot)” value in data set [8] is recorded as “dose-dependently up-regulated”. The apoptosis rate in data set [9] (1 μM) is listed as 72.39%; in [9] (3 μM), 98.27%. The “tumor growth inhibition (TGI)” value in data set [4] (50 mg/kg, oral, once a day, BALB/c nude mice) was determined as 22.53%; in data set [4] (75 mg/kg, oral, once a day, BALB/c nude mice), 37.73%. Also, the “tolerability, body weight throughout the study” value in [4] (50 and 75 mg/kg, oral, once a day, BALB/c nude mice) was “well-tolerated, with body weight maintained throughout the study”. In addition, in [4] (50 and 75 mg/kg, tumors harvested 2 h after last oral administration), the tumor weight entry is listed as “reduced with the increased concentration”. For the same molecule, the “phosphorylation of EGFR and Erk in tumors (Western blot)” value in data set [4] is “decreased phosphorylation of EGFR and the downstream signaling phosphorylation of Erk level”. Besides, the “EGFR phosphorylation (Western blot)” value in data set [10] (BaF3-EGFR^L858R/T790M and BaF3-EGFR^19del/T790M cells) is “dose-dependently suppressed”; in data set [6] (setting [15]), “potently and dose-dependently suppressed”. For the same molecule, the “expression of phospho-EGFR (Western blot)” value in [10] (NCI-H1975 cells) is “down-regulated”. Further, the “selectivity over EGFR^WT” value with EGFR^WT [12] is reported as “more than 78 fold”.
On to `COc1cc(N2CCC(N3CCN(C)CC3)CC2)ccc1Nc1ncc(Cl)c(Nc2ccccc2P(C)(C)=O)n1` [brigatinib], for which the IC50 amounted to 0.61 ± 0.21 µM in data set [1], 4.72 ± 2.15 µM in the data set on BaF3 parental cells, 0.31 ± 0.09 µM in data set [5] and 0.4 µM in the data set on PC-9-OR cells [7]. Further, the apoptosis rate result (in the data set on PC-9-OR cells [13]; in [14]; in data set [9] (3 μM)) was “around 80%” in each case. In [6] (setting [15]), the “EGFR phosphorylation (Western blot)” value is “significantly reduced”.

The values above are taken from paper PMC9809337, “Discovery of HCD3514 as a potent EGFR inhibitor against C797S mutation in vitro and in vivo” (Journal of Cancer, 2023).
